Data taken from paper PMC10112268, “Inhibition of Human Coronaviruses by Combinations of Host-Targeted and Direct-Acting Antivirals” (Antimicrobial Agents and Chemotherapy, 2023).
Like-named read-outs stand apart in the source and are kept apart here.

Tests used:
HCoV-229E-GFP [1] = format: cell-based; conditions: at 16 μM LG; no drug 3.5 ± 0.6 × 10^6
in vitro [2] = conditions: human
TGEV = assay: Antiviral effect against TGEV in WSL or ST cells, plaque assay on ST; format: cell-based, swine coronavirus TGEV; conditions: LG in WSL cells, VPA in ST cells
Description: Figure S2. […] The inhibitory effect […]
of LG or VPA was assayed on triplicate cultures of TGEV-infected WSL (wild swine macrophage cell line) or ST (swine testis) cells, respectively. After 1 h-pre-incubation with AVs, triplicate cultures were infected with the corresponding virus, at a MOI of 2 PFU/cell, in a reduced volume of medium containing the AV, for 2h, virus inoculum removed and cells washed twice with medium, before the addition of drug-containing fresh medium (supplemented with 2% FBS). Cultures were then incubated for 24 h at 37 °C; total virus (intracellular and extracellular) production was evaluated by plaque assay on triplicate cultures of ST cells. Left y-axis represents infectious virus progeny at 24 hpi and right y-axis, cell viability determined by MTT assay of each corresponding cell line. IC50 values and SI values […]
[TGEV titers (PFU/ml): 1.1±0.1 x 108 in the absence of the drugs, […]
(1 picture or pasted object on this page, not shown here)

[3] = tested on: SARS-CoV-2 isolate MAD6 (Wuhan-Hu-1 strain); assay: Virus yield inhibition in infected Calu3 2B4 cells, plaque assay on Vero E6; format: cell-based
SARS-CoV-2 (MAD6) = assay: Drug combination (synergy) study, virus yield in Calu3 2B4, CompuSyn; format: cell-based
HCoV-229E-GFP [4] = assay: Direct virucidal effect on virus particles; conditions: 10^5 PFU, 1 h at room temperature; LG 0 to 300 μM, VPA 0 to 300 mM
SARS-CoV-2 = assay: Direct virucidal effect on virus particles; conditions: 10^5 PFU, 1 h at room temperature; LG 0 to 300 μM, VPA 0 to 300 mM
in vitro [5] = conditions: human, CC50 (MTT assay), Huh-7
HCoV-OC43 [6] = format: cell-based; conditions: at 32 μM LG; no drug 3.2 ± 0.2 × 10^6
HCoV-OC43 [7] = assay: Direct virucidal effect on virus particles; conditions: 10^5 PFU, 1 h at room temperature; LG 0 to 300 μM, VPA 0 to 300 mM
HCoV-229E-GFP [8] = assay: microbe, parasite or virus in culture; format: cell-based; conditions: for IC50: Human coronavirus 229E
[9] = tested on: SARS-CoV-2 isolate 39896362_AG (omicron strain); assay: microbe, parasite or virus in culture; format: cell-based; conditions: […], Fig. 1
HCoV-229E-GFP [10] = assay: Time of addition assay; format: cell-based; conditions: for IC50: Human coronavirus 229E, 24 hpi
FMDV = conditions: mouse, cited from earlier work
in vitro [11] = conditions: human, CC50 (MTT assay), HCT-8
HCoV-OC43 [12] = assay: microbe, parasite or virus in culture; format: cell-based
in vitro [13] = conditions: African green monkey
[14] = tested on: HCoV-229E, HCoV-OC43, and SARS-CoV-2; assay: Antiviral assays, summary over all tested HCoVs; format: cell-based, human coronaviruses
[15] = long-term toxicity studies in rats and mice; cited from earlier work
HCoV-OC43 [16] = assay: Time of addition assay; format: cell-based; conditions: for IC50: 48 hpi
[17] = tested on: SARS-CoV-2 isolate MAD6 (Wuhan-Hu-1 strain); assay: Time of addition assay; format: cell-based; conditions: for IC50: 24 hpi, read-out: IC50, SARS-CoV-2 production

CCCCCCCCCCCCOC(=O)c1cc(O)c(O)c(O)c1 [LG, lauryl gallate]
HCoV-229E-GFP titers (HCoV-229E-GFP [1]): 5 ± 0.2 × 10^2 PFU/mL | CC50 (in vitro [2]): 124000 nM | inhibition of TGEV multiplication (TGEV): inhibited the multiplication | IC50 ([3]; Severe acute respiratory syndrome coronavirus 2, Calu-3 2B4, read-out: IC50, virus yield, Calu3 2B4, Wuhan-Hu-1 strain, AV from 1 h before adsorption, 24 hpi, Fig. 1): 2260 ± 500 nM | SARS-CoV-2 titers ([3]; at 100 μM, Fig. 3, no drug 3.±0.1 × 10^5): 1 ± 0.1 × 10^2 PFU/mL | SARS-CoV-2 isolate MAD6 titers ([3]; at LG 100 μM, 24 hpi, no drug 3.4 ± 1 × 10^5, Fig. 1): 5 ± 0.01 × 10^1 PFU/mL | SARS-CoV-2 titers (SARS-CoV-2 (MAD6); at 16 μM LG, no drug 3.2 ± 0.2 × 10^5): 6 ± 0.2 × 10^3 PFU/mL | average DRI (SARS-CoV-2 (MAD6); for the named drug over its combinations, at Fa = 0.5 to 0.95): 4.25 | direct virucidal effect (change in virus titers) (HCoV-229E-GFP [4]): No decrease in virus titers | direct virucidal effect (change in virus titers) (SARS-CoV-2): No decrease in virus titers | CC50 (in vitro [5]; 24 h cell incubation with AV): 83100 nM | CC50 (in vitro [5]; 48 h cell incubation with AV): 55000 nM | HCoV-OC43 titers (HCoV-OC43 [6]): 2.2 ± 0.2 × 10^3 PFU/mL | direct virucidal effect (change in virus titers) (HCoV-OC43 [7]): No decrease in virus titers | selectivity index (SI=CC50/IC50) (HCoV-229E-GFP [8]): 79.14 | IC50 (HCoV-229E-GFP [8]; Huh-7, read-out: IC50, virus yield, Huh-7, AV from 1 h before adsorption, 24 hpi, Fig. 1): 1050 ± 300 nM | IC50 (HCoV-229E-GFP [8]; Huh-7, read-out: IC50, virus yield, specificity experiment (Fig. 3), Huh-7, 24 hpi): 1720 nM | HCoV-229E-GFP titers (HCoV-229E-GFP [8]; at 100 μM, Fig. 3, no drug 4 ± 0.9 × 10^6): 5 ± 0.2 × 10^2 PFU/mL | HCoV-229E-GFP titers (HCoV-229E-GFP [8]; at LG 40 μM, 24 hpi, no drug 3 ± 0.5 × 10^6, Fig. 1): 1.4 ± 0.2 × 10^2 PFU/mL | IC50 ([9]; Severe acute respiratory syndrome coronavirus 2, Vero C1008, Vero E6, omicron strain, AV from 1 h before adsorption, read-out: IC50, virus yield): 1360 ± 200 nM | SARS-CoV-2 isolate 39896362_AG titers ([9]; at LG 64 μM, no drug 1 ± 0.1 × 10^5): 5 ± 0.01 × 10^1 PFU/mL | IC50 (HCoV-229E-GFP [10]; read-out: IC50, HCoV-229E-GFP production, AV added 0 hpi): 1480 nM | IC50 (HCoV-229E-GFP [10]; read-out: IC50, HCoV-229E-GFP production, AV added 2 hpi): 2050 nM | IC50 (HCoV-229E-GFP [10]; read-out: IC50, HCoV-229E-GFP production, AV added −3 hpi (1 h before adsorption)): 1240 nM | HCoV-229E-GFP average titers (HCoV-229E-GFP [10]; at 40 μM LG, average of addition times, no drug 4 ± 0.6 × 10^6): 6 ± 2 × 10^2 PFU/mL | toxicity to the animals (FMDV; in vivo): not found to be toxic | in vivo antiviral effect against FMDV (FMDV): reducing FMDV-induced mortality and viral load in mice | CC50 (in vitro [11]; 24 h cell incubation with AV): 55000 nM | CC50 (in vitro [11]; 48 h cell incubation with AV): 50400 nM | selectivity index (SI=CC50/IC50) (HCoV-OC43 [12]): 33.74 | IC50 (HCoV-OC43 [12]; Betacoronavirus 1, OC43, Huh-7, read-out: IC50, virus yield, Huh-7, AV from 1 h before adsorption, 48 hpi, Fig. 1): 1630 ± 600 nM | IC50 (HCoV-OC43 [12]; Betacoronavirus 1, OC43, Huh-7, read-out: IC50, virus yield, specificity experiment (Fig. 3), Huh-7, 48 hpi): 1140 nM | HCoV-OC43 titers (HCoV-OC43 [12]; at 100 μM, Fig. 3, no drug 1.8 ± 0.9 × 10^6): 5 ± 0.01 × 10^1 PFU/mL | HCoV-OC43 titers (HCoV-OC43 [12]; at LG 40 μM, 48 hpi, no drug 3.1 ± 0.9 × 10^6, Fig. 1): 5 ± 0.01 × 10^1 PFU/mL | CC50 (in vitro [13]): 90900 nM | SI values for all tested HCoVs [14]: above 30 | IC50 ([14]; average over all tested HCoVs, read-out: average IC50 value): 1600 nM | IC50 ([14]; range over tested HCoVs, read-out: IC50 values, range over HCoVs): 1000 to 2000 nM | highest dose at which no effects were observed [15]: 1,000 mg kg-1 of feed | IC50 (HCoV-OC43 [16]; Betacoronavirus 1, OC43, read-out: IC50, HCoV-OC43 production, AV added 0 hpi): 1920 nM | IC50 (HCoV-OC43 [16]; Betacoronavirus 1, OC43, read-out: IC50, HCoV-OC43 production, AV added 2 hpi): 2970 nM | IC50 (HCoV-OC43 [16]; Betacoronavirus 1, OC43, read-out: IC50, HCoV-OC43 production, AV added −3 hpi (1 h before adsorption)): 1790 nM | HCoV-OC43 average titers (HCoV-OC43 [16]; at 40 μM LG, average of addition times, no drug 3.5 ± 0.5 × 10^6): 5 ± 0.01 × 10^1 PFU/mL | IC50 ([17]; Severe acute respiratory syndrome coronavirus 2, AV added 0 hpi): 2900 nM | IC50 ([17]; Severe acute respiratory syndrome coronavirus 2, AV added 2 hpi): 3090 nM | IC50 ([17]; Severe acute respiratory syndrome coronavirus 2, AV added −2 hpi (1 h before adsorption)): 2720 nM | SARS-CoV-2 average titers ([17]; at 100 μM LG, average of addition times, no drug 3.4 ± 0.2 × 10^5): 5 ± 0.01 × 10^1 PFU/mL
